Data taken from ChEMBL document CHEMBL1201862, “PubChem BioAssay data set” (2004).
Calls of active or inactive are those of the source.

How the values were obtained:
[1] = inhibitors of PGC1a acetylation in cells, dose response, cell-based, cherry-picked samples (AID 720514); type: functional;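 further: potency may reflect raised or lowered acetylation signal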
[2] = A Cell Based Secondary Assay To Explore Cytotoxicity of Compounds that Sensitize Mycobacterium Tuberculosis to Beta-Lactam Antibiotics.; type: functional
[3] = cytotoxicity toward NIH3T3 fibroblasts, dose response, counter-screen, cell-based, ATP luminescence, mouse fibroblasts (AID 2010); type: functional;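 further: cells exposed to compound for about 90 hours before reading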
[4] = inhibitors of intracellular T. cruzi replication, confirmation, NIH3T3 host cells, beta-gal luminescence (AID 2044); type: functional, cell-based;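 further: intracellular parasites grown in NIH/3T3 mouse fibroblasts as host cells; luminescent beta-galactosidase reporter signal from transgenic T. cruzi replicating inside host cells; inhibitors lower the luminescence signal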
[5] = molecular target: T1, Heat shock factor protein 1 (Mus musculus, UniProt P38532); assay: HSF1 potentiators in luciferase reporter cells, confirmation, cell-based, NIH3T3, luminescence, dose retest (AID 435004); type: functional;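 further: stress induced by proteasome inhibitor MG132 added 30 min after compound; luciferase reporter driven by HSF1 response element in NIH3T3 cells; actives raise luminescence as potentiators of the MG132 stress response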
T1 sequence (P38532 whole entry): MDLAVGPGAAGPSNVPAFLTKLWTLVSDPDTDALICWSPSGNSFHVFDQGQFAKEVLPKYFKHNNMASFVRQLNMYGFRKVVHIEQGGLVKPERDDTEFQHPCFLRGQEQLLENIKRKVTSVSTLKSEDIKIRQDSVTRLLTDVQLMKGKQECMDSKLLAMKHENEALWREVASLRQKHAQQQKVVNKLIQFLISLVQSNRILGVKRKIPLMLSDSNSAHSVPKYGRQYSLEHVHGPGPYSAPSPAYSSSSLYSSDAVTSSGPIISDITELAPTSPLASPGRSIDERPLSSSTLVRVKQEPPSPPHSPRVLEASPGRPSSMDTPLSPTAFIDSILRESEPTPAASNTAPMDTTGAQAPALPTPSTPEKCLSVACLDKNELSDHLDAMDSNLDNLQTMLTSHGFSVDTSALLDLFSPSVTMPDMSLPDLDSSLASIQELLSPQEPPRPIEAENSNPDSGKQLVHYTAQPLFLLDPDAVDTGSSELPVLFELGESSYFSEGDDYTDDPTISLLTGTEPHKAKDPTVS

HEK293 [6] = assay: cells; details: Homo sapiens
HEK293 [7] = assay: cells; details: Homo sapiens; remark: listed apart in the source
HeLa = assay: HeLa cell cytotoxicity, dose response, cytotoxicity control for MITF activator project, CellTiter-Glo luminescence, cherry-pick samples (AID 540259); type: functional, cell-based; details: Homo sapiens
Cytochrome P450 2D6 = Cytochrome P450 2D6 (Homo sapiens, UniProt P10635);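 further: CYP2D6 member of a cytochrome P450 panel assay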
H4 = assay: Luminescence Cell-Based Dose Response HTS to Identify Activators of 5'UTR Stem-Loop Driven Prion Protein mRNA Translation in H4 Neuroglioblastoma Cells. [Related pubchem assays: 1829 (Project Summary), 1814 (Primary HTS)]; type: functional; details: Homo sapiens
[8] = Luminescence Cell-Based Dose Response HTS to Identify Activators of Luciferase Translation or Activity in H4 […] Cells. [Related pubchem assays: 1829 (Project Summary), 1814 (Primary HTS)]; type: functional
[9] = molecular target: T2, Microphthalmia-associated transcription factor (Homo sapiens, UniProt O75030); assay: TRPM1 promoter luciferase signal decrease, dose response, MITF inhibitor project, cell-based, SK-MEL-5, cherry-picked, set 3 (AID 493073); type: functional
T2 sequence (O75030 whole entry): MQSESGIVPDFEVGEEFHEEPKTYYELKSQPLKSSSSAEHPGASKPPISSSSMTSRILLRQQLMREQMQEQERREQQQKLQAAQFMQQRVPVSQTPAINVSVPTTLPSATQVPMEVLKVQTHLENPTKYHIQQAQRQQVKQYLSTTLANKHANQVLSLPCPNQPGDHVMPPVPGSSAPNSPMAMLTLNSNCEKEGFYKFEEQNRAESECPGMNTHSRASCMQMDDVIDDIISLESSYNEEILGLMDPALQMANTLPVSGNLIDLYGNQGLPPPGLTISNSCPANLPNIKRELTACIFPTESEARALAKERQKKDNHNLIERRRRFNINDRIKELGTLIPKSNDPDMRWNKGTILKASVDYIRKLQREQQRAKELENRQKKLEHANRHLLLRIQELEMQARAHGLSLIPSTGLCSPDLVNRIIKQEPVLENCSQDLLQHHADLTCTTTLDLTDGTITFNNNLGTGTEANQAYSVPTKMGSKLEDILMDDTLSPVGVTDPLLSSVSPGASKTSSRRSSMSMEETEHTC

[10] = Luminescence Cell-Based Dose Retest to Confirm Inhibitors of Cancer Stem Cells. [Related pubchem assays (depositor defined):AID2717, AID2721]; type: functional; details: Homo sapiens
INS1 = assay: beta cell apoptosis inhibitors, cytokine rescue, dose response, luminescence, retest (AID 449756); type: functional, cell-based; details: Rattus norvegicus;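 further: cell death triggered by IL-1 beta plus TNF-alpha plus IFN-gamma mixture; protective hits raise ATP signal compared with cytokine alone wells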
A-375 = assay: A375 melanoma cell viability reduction, dose response, counter-screen for MITF modulator project, cherry-pick samples, set 2 (AID 540335); type: functional, cell-based; details: Homo sapiens
[11] = molecular target: T3, Zinc finger protein mex-5 (Caenorhabditis elegans, UniProt Q9XUB2); assay: MEX-5/TCR-2 RNA interaction inhibitors, dose response, biochemical, C. elegans, fluorescence polarization (AID 1960)
T3 sequence (Q9XUB2 whole entry): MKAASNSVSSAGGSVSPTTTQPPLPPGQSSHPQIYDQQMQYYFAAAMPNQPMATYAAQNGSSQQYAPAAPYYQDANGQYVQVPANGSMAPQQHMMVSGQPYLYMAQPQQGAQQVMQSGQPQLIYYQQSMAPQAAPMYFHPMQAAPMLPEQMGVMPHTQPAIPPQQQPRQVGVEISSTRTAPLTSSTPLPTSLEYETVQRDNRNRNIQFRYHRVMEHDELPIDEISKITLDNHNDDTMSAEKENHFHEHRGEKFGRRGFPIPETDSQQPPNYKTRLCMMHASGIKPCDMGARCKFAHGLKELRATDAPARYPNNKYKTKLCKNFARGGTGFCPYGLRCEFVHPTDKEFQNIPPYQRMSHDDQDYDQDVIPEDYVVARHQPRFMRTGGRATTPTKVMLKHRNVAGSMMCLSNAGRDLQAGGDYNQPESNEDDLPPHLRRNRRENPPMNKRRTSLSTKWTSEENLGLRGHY

[12] = molecular target: Lysine-specific demethylase 4A (Homo sapiens, UniProt O75164); assay: JMJD2A histone demethylase inhibitors, dose response, selectivity assay for GASC-1 inhibitor project, biochemical, DELFIA europium, cherry-picked samples (AID 488840)
[13] = molecular target: T4, Lysine-specific demethylase 4C (Homo sapiens, UniProt Q9H3R0); assay: GASC-1 (JMJD2C) histone demethylase inhibitors, dose response, biochemical, DELFIA europium, cherry-picked samples (AID 488835); type: functional
T4 sequence (Q9H3R0 whole entry): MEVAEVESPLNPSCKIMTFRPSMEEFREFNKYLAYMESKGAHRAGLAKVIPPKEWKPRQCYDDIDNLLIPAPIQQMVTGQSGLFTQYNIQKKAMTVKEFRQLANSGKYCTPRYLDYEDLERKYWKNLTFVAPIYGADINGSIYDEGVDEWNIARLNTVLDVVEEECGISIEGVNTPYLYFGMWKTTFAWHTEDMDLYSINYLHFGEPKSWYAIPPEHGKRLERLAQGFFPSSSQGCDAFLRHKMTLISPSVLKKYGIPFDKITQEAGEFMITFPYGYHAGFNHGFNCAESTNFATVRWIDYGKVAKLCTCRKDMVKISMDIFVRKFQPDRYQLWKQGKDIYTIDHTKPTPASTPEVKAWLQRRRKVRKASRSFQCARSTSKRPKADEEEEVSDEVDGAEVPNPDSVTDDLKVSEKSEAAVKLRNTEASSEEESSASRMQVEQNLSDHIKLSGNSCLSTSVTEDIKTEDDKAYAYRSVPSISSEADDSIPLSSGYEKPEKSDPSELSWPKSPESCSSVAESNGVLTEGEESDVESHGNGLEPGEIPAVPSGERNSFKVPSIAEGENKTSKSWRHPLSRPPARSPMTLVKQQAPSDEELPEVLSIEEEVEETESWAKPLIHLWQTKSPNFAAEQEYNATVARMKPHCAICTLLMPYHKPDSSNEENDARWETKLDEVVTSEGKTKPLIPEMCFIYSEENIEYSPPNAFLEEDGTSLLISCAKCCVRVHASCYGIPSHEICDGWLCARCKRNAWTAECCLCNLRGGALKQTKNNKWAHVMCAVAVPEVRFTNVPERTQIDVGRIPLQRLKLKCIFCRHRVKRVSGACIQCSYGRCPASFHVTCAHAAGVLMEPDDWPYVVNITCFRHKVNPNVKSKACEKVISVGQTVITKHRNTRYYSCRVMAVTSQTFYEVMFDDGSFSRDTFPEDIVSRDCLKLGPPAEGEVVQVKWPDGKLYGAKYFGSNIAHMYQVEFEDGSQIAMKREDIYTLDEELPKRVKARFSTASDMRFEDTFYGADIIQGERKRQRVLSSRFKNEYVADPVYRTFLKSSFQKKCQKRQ

[14] = molecular target: T5, RNA-binding protein pos-1 (Caenorhabditis elegans, UniProt G5EF15); assay: inhibitors of POS-1/mex-3 RNA binding, dose response, biochemical, fluorescence polarization (AID 1964);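 further: purified POS-1 fused to maltose binding protein made in E. coli; potency of compounds blocking POS-1 binding to fluorescent RNA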
T5 sequence (G5EF15 whole entry): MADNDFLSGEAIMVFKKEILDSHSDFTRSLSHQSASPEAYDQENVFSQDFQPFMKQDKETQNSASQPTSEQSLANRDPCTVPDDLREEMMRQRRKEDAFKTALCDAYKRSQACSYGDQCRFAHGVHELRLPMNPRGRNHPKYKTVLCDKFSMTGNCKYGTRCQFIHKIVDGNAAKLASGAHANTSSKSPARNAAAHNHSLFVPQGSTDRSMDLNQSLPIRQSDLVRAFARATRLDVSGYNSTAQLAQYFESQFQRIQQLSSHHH

Cytochrome P450 2C9 = Cytochrome P450 2C9 (Homo sapiens, UniProt P11712)
Leucine aminopeptidase = molecular target: T6, Leucine aminopeptidase (Plasmodium falciparum 3D7, UniProt Q8IL11); assay: P. falciparum M17LAP inhibitors, primary screen, biochemical, fluorogenic H-Leu-NHMec substrate, 1536-well (AID 1619); type: functional
T6 sequence (Q8IL11 whole entry): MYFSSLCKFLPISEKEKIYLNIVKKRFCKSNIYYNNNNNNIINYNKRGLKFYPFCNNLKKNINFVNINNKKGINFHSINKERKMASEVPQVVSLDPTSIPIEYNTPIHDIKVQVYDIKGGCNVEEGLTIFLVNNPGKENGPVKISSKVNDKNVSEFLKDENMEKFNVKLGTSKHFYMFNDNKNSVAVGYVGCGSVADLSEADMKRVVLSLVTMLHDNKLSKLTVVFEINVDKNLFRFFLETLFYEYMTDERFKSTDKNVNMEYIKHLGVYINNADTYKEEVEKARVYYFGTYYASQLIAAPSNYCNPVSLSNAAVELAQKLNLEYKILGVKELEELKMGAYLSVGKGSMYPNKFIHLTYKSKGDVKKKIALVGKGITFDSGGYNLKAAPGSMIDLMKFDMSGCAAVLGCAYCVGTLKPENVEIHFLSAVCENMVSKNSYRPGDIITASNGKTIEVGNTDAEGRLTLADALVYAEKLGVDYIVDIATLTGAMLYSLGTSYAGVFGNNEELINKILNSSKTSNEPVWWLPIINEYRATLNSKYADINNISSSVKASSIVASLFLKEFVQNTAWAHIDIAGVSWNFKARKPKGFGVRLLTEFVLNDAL

Cytochrome P450 2C19 = Cytochrome P450 2C19 (Homo sapiens, UniProt P33261); assay: Cytochrome panel assay with activity outcomes. Panel member name: p450-cyp2c19 Compounds with AC50 equal or less than 10 uM are considered active; type: functional; details: read-out: AC50
Jurkat [15] = assay: SAR Analysis of small molecule inhibitors of T-cell specific antigen receptor-induced NF-kB activation in a Jurkat cell line using a luminescence assay - Set 2. [Related pubchem assays (depositor defined):AID435003, AID435012, AID465]; type: functional, cell-based; details: Homo sapiens
HEK293 [16] = assay: cytotoxicity in HEK293T NF-kB-Luc cells, SAR follow-up, cytotoxicity control for NF-kB activator project, cell-based, resazurin fluorescence (AID 493251); type: functional; details: Homo sapiens
HEK293 [17] = assay: SAR Analysis of small molecule inhibitors of T-cell specific antigen receptor-induced NF-kB activation in a HEK-293T cell line using a luminescence assay - Set 2. [Related pubchem assays (depositor defined):AID435003, AID435012, AID489026]; type: functional, cell-based; details: Homo sapiens
[18] = cytotoxicity in HEK-293T NF-kB-Luc cells, dose response, cytotoxicity control for B/T-cell NF-kB inhibitor project, cell-based, uHTS hits (AID 489019); type: functional;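 further: IC50 reflects cytotoxicity as loss of cell viability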
Jurkat [19] = assay: antigen receptor-induced NF-kB inhibitors, dose response, Jurkat, luciferase reporter, luminescence, B- and T-cell (AID 489004); type: functional, cell-based; details: Homo sapiens;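 further: NF-kB luciferase reporter Jurkat cells stimulated with PMA plus ionomycin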

Sequence of Cytochrome P450 2D6 (P10635 whole entry): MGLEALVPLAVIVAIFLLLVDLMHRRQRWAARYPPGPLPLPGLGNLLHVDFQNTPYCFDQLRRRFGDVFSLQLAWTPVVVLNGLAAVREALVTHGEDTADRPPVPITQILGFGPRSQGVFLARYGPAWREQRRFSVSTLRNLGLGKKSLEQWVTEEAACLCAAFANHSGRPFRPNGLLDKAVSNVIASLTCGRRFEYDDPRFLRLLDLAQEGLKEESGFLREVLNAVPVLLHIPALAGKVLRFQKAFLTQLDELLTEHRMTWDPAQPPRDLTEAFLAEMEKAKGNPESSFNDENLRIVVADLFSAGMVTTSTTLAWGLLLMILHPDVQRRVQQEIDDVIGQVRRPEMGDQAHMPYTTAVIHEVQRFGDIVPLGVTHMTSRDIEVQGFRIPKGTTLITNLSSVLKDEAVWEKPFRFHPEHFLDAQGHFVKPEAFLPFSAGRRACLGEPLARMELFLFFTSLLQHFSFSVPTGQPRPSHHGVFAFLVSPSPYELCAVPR
Sequence of Cytochrome P450 2C9 (P11712 whole entry): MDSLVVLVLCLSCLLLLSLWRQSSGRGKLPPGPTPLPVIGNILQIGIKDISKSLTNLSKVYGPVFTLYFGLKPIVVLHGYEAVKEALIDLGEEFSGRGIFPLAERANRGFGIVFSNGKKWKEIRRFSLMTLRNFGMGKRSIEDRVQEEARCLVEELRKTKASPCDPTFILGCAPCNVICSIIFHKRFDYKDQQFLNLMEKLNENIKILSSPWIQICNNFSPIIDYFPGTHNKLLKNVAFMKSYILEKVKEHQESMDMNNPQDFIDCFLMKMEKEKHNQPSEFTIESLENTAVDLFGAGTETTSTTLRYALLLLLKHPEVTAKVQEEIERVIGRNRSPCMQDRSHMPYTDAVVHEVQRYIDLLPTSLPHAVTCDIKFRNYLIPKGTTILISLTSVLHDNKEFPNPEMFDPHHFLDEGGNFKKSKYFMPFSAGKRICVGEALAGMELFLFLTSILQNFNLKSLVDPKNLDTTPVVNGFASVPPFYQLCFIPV
Sequence of Lysine-specific demethylase 4A (O75164 whole entry): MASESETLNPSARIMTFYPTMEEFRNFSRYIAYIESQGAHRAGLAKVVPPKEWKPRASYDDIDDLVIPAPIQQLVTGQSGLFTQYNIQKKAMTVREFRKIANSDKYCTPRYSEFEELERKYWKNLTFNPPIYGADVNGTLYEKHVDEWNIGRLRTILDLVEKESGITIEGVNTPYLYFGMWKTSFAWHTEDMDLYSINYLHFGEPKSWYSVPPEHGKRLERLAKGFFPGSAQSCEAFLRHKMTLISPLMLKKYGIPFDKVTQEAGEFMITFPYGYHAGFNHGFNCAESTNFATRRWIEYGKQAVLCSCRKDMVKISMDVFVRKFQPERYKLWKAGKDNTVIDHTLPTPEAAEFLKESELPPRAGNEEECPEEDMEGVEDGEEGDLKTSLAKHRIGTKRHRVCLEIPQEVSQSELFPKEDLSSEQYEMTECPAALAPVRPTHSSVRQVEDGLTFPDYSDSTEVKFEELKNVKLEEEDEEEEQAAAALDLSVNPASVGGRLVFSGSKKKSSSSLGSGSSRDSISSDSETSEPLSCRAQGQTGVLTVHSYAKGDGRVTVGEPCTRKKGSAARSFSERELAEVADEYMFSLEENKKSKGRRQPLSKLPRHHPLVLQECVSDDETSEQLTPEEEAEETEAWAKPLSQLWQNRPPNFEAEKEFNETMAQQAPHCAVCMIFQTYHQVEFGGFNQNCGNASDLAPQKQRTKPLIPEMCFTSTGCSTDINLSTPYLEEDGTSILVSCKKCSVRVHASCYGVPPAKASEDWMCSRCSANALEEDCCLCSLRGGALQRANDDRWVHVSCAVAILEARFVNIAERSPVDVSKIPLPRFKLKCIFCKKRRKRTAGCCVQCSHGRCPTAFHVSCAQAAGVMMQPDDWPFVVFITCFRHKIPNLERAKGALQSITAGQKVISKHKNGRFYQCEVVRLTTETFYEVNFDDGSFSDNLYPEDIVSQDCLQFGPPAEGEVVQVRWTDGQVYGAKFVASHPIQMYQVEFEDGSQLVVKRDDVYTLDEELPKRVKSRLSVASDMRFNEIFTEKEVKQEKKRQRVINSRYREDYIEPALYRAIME
Sequence of Cytochrome P450 2C19 (P33261 whole entry): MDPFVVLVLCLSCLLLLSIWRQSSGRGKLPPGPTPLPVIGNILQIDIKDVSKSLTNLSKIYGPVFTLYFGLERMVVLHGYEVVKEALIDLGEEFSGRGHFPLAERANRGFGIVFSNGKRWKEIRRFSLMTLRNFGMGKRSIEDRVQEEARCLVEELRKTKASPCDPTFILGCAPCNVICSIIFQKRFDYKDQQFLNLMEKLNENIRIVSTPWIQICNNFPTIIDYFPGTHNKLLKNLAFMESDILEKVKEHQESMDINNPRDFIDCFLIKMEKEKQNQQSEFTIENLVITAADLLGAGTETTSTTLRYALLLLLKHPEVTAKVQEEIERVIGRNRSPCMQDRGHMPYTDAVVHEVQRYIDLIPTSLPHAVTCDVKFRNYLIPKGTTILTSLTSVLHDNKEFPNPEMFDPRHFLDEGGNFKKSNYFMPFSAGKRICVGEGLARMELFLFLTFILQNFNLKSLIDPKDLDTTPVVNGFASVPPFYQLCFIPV

N#Cc1cc(Oc2cccc3cccnc23)c(-n2nnc3ccccc32)cc1C#N
AC50 [1]: 2.77 µM (active) | CC50 [2]: > 40 µM (active) | EC50 [3]: 22.6 µM (active) | EC50 [4]: 2.25 µM (active) | EC50 [5]: > 260 µM (inactive) | EC50 (HEK293 [6]): > 59.6 µM (inactive) | EC50 (HEK293 [7]): > 59.6 µM (inactive)

O=C(CNC(=O)c1cccs1)c1ccc(Br)cc1
AC50 (HeLa): 59.4 µM (active)

O=C1OC(=O)[C@@H]2[C@@H]1[C@@H]1CC[C@H]2O1
AC50 (Cytochrome P450 2D6): inconclusive

C=CCn1c(C)cc(C(=O)CN2NS(=O)(=O)c3ccccc3C2=O)c1C
EC50 (HEK293 [6]): > 59.6 µM (inactive) | EC50 (HEK293 [7]): > 2.21 µM (active)

Cc1ccc(Sc2cnc3ccccc3n2)cc1
EC50 (H4): 10.1 µM (active) | EC50 [8]: 3.64 µM (active) | AC50 (HeLa): 44.3 µM (active)

Cc1ccc(C)c(NC(=O)/C(C#N)=C/c2cn(CC(=O)NCc3ccco3)c3ccccc23)c1
AC50 [9]: 6.56 µM (active) | AC50 [10]: 57.8 µM (active) | AC50 (INS1): 3.67 µM (active) | AC50 (A-375): 33.9 µM (active)

Cn1c(=O)c2[nH]c(N=NNc3ccccc3F)nc2n(C)c1=O
EC50 [11]: 21.7 µM (active) | AC50 [12]: 17.3 µM (active) | AC50 [13]: 8.83 µM (active) | EC50 [14]: 62 µM (active)

Cc1ccc(NC(=O)c2cc(NC(=O)CCC(=O)O)ccc2N2CCCCC2)cc1
AC50 (Cytochrome P450 2D6): inconclusive | AC50 (Cytochrome P450 2C9): 14.1 µM (inconclusive) | IC50 (Leucine aminopeptidase): 11.8 µM (active) | AC50 (Cytochrome P450 2C19): 35.5 µM (inconclusive)

Cc1ccc(NC(=O)c2ccc([N+](=O)[O-])o2)cc1C(F)(F)F
IC50 (Jurkat [15]): 0.45 µM (active) | IC50 (HEK293 [16]): 60 µM (inactive) | IC50 (HEK293 [17]): 68.5 µM (inactive)

CCCCCCCCn1ccc(=N)cc1
AC50 (INS1): 0.585 µM (active) | IC50 [18]: > 80 µM (inactive) | IC50 (Jurkat [19]): > 80 µM (inactive)
